One compound from publication PMC7206119, “RIP1 inhibition blocks inflammatory diseases but not tumor growth or metastases” (Cell Death and Differentiation, 2019) can be followed below.

What all share (experiment): biochemical
Common to all, as to design: DiscoverX kinase panel, active-site competition binding (KINOMEscan type), percent of control at one concentration
Holding throughout (conditions): competition binding, percent of control

In one assay the target is FLT3(ITD,D835V) (Homo sapiens, UniProt P36888, D835V/ITD). The source says: (§1) To investigate the potential therapeutic benefit of inhibiting RIP1, we developed GNE684 or (S)-N-((S)-7-methoxy-1-methyl-2-oxo-2,3,4,5-tetrahydro-1H-pyrido[3,4-b]azepin-3-yl)-5-phenyl-6,7-dihydro-5H-pyrrolo[1,2-b][1,2,4]triazole-2-carboxamide with cross-species potency against RIP1, exquisite kinase selectivity, and favorable pharmacological properties (Fig. 1a–h, S1, Tables S1 and S2, SI file 1). […] (Fig. 1b, S1, and Table S1). […] GNE684 inhibited human RIP1 potently in vitro, and mouse and rat RIP1 with slightly less potency (Fig. 1d). Accordingly, it inhibited TNF-induced necroptosis in human HT-29, mouse L929, or rat H9c2 cells (Fig. 1e). The cellular potency of GNE684 was confirmed in a human whole blood assay using TBZ (TNF, IAP antagonist BV6, and pan-caspase inhibitor zVAD) or LZ (LPS plus zVAD) to trigger necroptosis and the release of IL-1α and IL-1β (Fig. 1f).

Another assay deals with T1, p38-alpha (Homo sapiens, UniProt Q16539).
T1 construct: gene MAPK14
Description: as §1

Another assay concerns the target FLT3(K663Q) (Homo sapiens, UniProt P36888, K663Q).
Description: as §1

In the next assay the target is EIF2AK1 (Homo sapiens, UniProt Q9BQI3).
Description: as §1

The next assay concerns the target PDGFRA (Homo sapiens, UniProt P16234).
Description: as §1

In the next assay the target is DYRK1A (Homo sapiens, UniProt Q13627).
Description: as §1

The next assay concerns the target PLK1 (Homo sapiens, UniProt P53350).
Description: as §1

In another assay the target is CDK9 (Homo sapiens, UniProt P50750).
Description: as §1

For the next assay, the target named is RET(V804L) (Homo sapiens, UniProt P07949, V804L).
RET(V804L), sequence (P07949 whole entry V804L): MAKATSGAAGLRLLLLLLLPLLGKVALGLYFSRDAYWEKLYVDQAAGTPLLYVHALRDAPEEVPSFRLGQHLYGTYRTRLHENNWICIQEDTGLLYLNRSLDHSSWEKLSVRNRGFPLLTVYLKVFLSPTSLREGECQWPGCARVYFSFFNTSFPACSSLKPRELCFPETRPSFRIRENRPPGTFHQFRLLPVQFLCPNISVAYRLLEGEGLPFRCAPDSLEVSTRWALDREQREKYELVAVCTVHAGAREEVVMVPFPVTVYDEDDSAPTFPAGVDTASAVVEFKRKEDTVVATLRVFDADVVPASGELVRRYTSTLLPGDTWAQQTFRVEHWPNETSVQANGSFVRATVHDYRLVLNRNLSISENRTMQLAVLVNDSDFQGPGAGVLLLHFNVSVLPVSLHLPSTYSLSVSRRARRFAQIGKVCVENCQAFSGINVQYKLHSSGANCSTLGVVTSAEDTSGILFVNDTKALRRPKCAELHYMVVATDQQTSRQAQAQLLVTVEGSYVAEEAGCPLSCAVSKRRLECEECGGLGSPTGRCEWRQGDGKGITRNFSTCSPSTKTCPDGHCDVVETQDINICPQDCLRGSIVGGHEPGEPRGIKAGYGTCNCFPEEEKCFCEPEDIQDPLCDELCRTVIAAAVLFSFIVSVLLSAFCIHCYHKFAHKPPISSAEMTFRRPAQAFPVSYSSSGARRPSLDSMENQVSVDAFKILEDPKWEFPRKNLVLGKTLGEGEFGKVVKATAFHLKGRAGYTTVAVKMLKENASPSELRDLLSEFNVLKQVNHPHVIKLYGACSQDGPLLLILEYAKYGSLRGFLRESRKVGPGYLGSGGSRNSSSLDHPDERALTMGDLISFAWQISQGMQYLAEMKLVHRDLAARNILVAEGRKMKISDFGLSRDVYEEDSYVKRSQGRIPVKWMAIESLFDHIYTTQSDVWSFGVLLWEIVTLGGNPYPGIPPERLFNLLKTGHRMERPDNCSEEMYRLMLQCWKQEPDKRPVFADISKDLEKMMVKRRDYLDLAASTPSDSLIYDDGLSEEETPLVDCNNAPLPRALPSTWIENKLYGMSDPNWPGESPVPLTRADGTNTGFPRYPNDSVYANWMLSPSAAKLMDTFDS
Description: as §1

The next assay has as its target GSK3B (Homo sapiens, UniProt P49841).
Description: as §1

A further assay has as its target EGFR(E746-A750del) (Homo sapiens, UniProt P00533, DEL746-750).
Description: as §1

Another assay concerns the target GRK3 (Homo sapiens, UniProt P35626).
Description: as §1

The target in another assay is HCK (Homo sapiens, UniProt P08631).
Description: as §1

A further assay concerns the target SGK2 (Homo sapiens, UniProt Q9HBY8).
Description: as §1

The target in a further assay is T2, MKK7 (Homo sapiens, UniProt O14733).
T2 construct: gene MAP2K7
T2 sequence (O14733 whole entry): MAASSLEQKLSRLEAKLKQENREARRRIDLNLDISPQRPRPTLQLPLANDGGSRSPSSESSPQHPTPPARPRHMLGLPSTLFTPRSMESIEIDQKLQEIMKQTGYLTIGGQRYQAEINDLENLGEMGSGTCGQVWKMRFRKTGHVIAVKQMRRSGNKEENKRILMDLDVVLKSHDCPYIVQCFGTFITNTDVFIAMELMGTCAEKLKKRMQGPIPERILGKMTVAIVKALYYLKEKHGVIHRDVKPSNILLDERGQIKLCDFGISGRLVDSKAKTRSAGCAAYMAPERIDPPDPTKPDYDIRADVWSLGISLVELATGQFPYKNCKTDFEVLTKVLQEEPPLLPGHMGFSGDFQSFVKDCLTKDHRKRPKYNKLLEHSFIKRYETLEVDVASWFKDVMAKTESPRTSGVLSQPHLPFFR
Description: as §1

For the next assay, the target named is CSF1R-autoinhibited (Homo sapiens, UniProt P07333).
Description: as §1

A further assay addresses EPHA1 (Homo sapiens, UniProt P21709).
Description: as §1

The target in the next assay is MAST1 (Homo sapiens, UniProt Q9Y2H9).
Description: as §1

A further assay deals with T3, MEK1 (Homo sapiens, UniProt Q02750).
T3 construct: gene MAP2K1
Description: as §1

In the next assay the target is PIK3CB (Homo sapiens, UniProt P42338).
PIK3CB, sequence (P42338 whole entry): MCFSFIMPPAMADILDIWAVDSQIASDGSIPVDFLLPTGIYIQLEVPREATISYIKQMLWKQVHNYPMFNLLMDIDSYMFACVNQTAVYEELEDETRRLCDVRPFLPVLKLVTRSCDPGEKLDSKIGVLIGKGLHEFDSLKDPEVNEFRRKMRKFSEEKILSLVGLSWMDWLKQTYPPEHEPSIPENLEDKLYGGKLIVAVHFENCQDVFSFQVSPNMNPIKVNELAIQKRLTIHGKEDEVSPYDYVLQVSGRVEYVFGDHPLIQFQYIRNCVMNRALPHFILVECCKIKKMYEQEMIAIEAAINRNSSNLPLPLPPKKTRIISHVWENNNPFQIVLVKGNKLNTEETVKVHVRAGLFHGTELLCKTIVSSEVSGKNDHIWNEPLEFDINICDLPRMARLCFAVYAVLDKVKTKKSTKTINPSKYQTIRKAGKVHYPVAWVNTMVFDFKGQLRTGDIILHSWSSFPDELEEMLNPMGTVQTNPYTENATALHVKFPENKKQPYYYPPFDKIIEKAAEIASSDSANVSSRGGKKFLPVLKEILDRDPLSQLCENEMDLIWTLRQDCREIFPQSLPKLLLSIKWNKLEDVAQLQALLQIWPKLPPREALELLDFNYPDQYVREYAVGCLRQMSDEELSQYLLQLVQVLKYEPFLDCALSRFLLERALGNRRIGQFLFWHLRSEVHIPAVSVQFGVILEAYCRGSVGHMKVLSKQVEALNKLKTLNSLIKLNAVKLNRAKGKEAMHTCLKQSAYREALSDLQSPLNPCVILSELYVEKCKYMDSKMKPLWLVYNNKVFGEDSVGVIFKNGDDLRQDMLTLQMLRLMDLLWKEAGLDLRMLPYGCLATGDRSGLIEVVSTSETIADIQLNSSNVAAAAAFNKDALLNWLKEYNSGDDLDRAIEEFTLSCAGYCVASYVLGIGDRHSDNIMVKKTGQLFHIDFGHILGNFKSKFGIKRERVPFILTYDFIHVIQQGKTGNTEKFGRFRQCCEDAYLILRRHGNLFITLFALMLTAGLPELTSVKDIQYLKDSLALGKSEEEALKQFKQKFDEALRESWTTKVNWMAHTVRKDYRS
Description: as §1

A further assay deals with T4, p38-beta (Homo sapiens, UniProt Q15759).
T4 construct: gene MAPK11
Description: as §1

GRK3, sequence (P35626 whole entry): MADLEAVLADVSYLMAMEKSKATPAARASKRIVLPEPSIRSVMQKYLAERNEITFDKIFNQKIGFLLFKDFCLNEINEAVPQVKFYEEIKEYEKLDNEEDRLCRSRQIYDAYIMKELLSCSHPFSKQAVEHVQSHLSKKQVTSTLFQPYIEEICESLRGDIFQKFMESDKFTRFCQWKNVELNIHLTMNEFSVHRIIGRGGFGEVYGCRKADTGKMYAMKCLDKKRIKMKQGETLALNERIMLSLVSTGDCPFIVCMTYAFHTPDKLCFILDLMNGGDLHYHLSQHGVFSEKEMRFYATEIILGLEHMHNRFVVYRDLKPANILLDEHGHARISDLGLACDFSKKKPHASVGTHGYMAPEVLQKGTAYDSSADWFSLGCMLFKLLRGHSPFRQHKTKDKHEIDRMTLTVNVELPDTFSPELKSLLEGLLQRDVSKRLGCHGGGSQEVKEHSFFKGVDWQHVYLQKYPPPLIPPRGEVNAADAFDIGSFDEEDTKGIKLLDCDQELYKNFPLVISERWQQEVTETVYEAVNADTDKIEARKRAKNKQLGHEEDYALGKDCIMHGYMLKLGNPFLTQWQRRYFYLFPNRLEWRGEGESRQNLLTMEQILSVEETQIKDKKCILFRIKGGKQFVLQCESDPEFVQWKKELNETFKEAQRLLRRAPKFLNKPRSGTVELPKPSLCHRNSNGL
SGK2, sequence (Q9HBY8 whole entry): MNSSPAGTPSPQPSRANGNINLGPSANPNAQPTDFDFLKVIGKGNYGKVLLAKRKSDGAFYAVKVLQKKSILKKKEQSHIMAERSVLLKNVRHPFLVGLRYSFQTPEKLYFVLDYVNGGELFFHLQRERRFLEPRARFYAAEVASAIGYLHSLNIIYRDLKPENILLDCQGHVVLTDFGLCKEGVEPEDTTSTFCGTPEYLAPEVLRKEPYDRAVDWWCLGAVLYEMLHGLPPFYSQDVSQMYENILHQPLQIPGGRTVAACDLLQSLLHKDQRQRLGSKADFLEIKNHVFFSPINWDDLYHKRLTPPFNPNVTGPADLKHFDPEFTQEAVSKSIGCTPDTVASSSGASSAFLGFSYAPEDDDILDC
GSK3B, sequence (P49841 whole entry): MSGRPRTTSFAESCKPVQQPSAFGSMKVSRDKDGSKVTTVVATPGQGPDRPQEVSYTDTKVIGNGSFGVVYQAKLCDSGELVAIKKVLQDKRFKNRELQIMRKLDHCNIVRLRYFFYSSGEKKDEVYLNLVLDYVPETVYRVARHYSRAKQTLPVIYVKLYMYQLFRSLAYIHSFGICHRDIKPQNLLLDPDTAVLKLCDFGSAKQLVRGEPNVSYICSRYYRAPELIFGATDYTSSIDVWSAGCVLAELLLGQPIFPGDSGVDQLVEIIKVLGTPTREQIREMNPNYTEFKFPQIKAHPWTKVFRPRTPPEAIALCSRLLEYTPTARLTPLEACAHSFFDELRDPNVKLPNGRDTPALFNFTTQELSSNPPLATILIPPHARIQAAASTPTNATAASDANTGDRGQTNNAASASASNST
EPHA1, sequence (P21709 whole entry): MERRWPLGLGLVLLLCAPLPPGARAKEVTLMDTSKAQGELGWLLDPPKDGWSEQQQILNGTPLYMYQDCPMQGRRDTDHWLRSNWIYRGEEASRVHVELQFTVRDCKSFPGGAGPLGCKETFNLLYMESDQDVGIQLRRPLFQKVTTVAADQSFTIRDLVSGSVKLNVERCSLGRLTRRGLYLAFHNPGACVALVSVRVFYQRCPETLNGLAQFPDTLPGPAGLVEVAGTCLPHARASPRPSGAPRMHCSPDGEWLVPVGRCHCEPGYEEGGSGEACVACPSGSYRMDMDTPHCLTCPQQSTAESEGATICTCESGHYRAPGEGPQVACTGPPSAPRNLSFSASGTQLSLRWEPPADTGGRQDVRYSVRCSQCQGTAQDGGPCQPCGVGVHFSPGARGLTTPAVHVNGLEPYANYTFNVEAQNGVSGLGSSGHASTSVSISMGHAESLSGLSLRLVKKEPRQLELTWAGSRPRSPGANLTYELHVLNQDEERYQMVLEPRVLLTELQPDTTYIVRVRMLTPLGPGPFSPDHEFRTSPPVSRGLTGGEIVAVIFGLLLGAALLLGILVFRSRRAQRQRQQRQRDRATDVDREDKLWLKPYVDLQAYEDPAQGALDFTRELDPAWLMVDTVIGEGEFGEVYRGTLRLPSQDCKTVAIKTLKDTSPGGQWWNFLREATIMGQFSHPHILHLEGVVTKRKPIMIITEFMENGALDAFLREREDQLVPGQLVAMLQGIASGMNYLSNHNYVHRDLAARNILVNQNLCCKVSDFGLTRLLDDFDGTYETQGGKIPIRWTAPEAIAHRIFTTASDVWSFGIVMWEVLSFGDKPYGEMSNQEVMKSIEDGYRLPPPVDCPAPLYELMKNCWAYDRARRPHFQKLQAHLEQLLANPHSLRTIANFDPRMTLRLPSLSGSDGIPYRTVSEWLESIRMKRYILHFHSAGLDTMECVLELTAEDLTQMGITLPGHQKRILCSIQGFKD

On to `COc1cc2c(cn1)N(C)C(=O)[C@@H](NC(=O)c1nc3n(n1)[C@H](c1ccccc1)CC3)CC2` [GNE684, (S)-N-((S)-7-methoxy-1-methyl-2-oxo-2,3,4,5-tetrahydro-1H-pyrido[3,4-b]azepin-3-yl)-5-phenyl-6,7-dihydro-5H-pyrrolo[1,2-b][1,2,4]triazole-2-carboxamide], for which the remaining binding at 10 µM at FLT3(ITD,D835V) was found to be 84%; on p38-alpha it was 95%; at FLT3(K663Q) it was 100%; at EIF2AK1 it was 100%; at PDGFRA it was 100%; at DYRK1A, 79%. The remaining binding at 10 µM was 79% at PLK1; 97% on CDK9; 91% at RET(V804L); 96% at GSK3B; 94% at EGFR(E746-A750del); 100% at GRK3. The remaining binding at 10 µM on HCK stood at 93%; at SGK2, 99%; at MKK7, 98%; on CSF1R-autoinhibited, 94%; on EPHA1, 93%; at MAST1, 94%. Moreover, the remaining binding at 10 µM amounted to 91% on MEK1, 100% on PIK3CB and 97% at p38-beta.
